Measured values from publication PMC7996970 (The Biochemical journal, 2020).

What was measured:
[1] = target: isocitrate dehydrogenase 1 (IDH1) (Homo sapiens, UniProt O75874, D273L/R132H); assay: isothermal titration calorimetry; type: binding
[2] = target: isocitrate dehydrogenase 1 (IDH1) (Homo sapiens, UniProt O75874); assay: steady-state kinetics, NADPH absorbance at […] nm; type: biochemical
[3] = target: isocitrate dehydrogenase 1 (IDH1) (Homo sapiens, UniProt O75874, K217M); assay: steady-state kinetics, NADPH absorbance at […] nm; type: biochemical
Chain of isocitrate dehydrogenase 1 (IDH1) (Homo sapiens, UniProt O75874, K217M) (O75874 2-414 K217M): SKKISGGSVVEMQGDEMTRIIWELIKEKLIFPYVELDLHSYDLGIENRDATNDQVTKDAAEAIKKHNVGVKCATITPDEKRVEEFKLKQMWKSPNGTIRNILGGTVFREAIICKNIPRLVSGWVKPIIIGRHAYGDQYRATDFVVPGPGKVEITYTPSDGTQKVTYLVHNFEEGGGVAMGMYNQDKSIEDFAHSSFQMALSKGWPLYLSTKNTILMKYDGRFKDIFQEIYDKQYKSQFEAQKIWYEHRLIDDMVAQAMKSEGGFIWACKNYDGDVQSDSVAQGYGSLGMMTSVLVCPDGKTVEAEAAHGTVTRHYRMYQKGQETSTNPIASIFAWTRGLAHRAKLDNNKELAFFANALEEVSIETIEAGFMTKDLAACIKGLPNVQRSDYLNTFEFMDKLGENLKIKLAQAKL

[4] = target: isocitrate dehydrogenase 1 (IDH1) (Homo sapiens, UniProt O75874, K217Q); assay: steady-state kinetics, NADPH absorbance at […] nm; type: biochemical
Chain of isocitrate dehydrogenase 1 (IDH1) (Homo sapiens, UniProt O75874, K217Q) (O75874 2-414 K217Q): as the sequence (O75874 2-414 K217M) above, with M216Q counted along it

[5] = target: isocitrate dehydrogenase 1 (IDH1) (Homo sapiens, UniProt O75874, D273S); assay: steady-state kinetics, NADPH absorbance at […] nm; type: biochemical
Chain of isocitrate dehydrogenase 1 (IDH1) (Homo sapiens, UniProt O75874, D273S) (O75874 2-414 D273S): as the sequence (O75874 2-414 K217M) above, with M216K, D272S counted along it

[6] = target: isocitrate dehydrogenase 1 (IDH1) (Homo sapiens, UniProt O75874, D273L); assay: steady-state kinetics, NADPH absorbance at […] nm; type: biochemical
Chain of isocitrate dehydrogenase 1 (IDH1) (Homo sapiens, UniProt O75874, D273L) (O75874 2-414 D273L): as the sequence (O75874 2-414 K217M) above, with M216K, D272L counted along it

[7] = target: isocitrate dehydrogenase 1 (IDH1) (Homo sapiens, UniProt O75874, D273N); assay: steady-state kinetics, NADPH absorbance at […] nm; type: biochemical
Chain of isocitrate dehydrogenase 1 (IDH1) (Homo sapiens, UniProt O75874, D273N) (O75874 2-414 D273N): as the sequence (O75874 2-414 K217M) above, with M216K, D272N counted along it

Chain of isocitrate dehydrogenase 1 (IDH1) (Homo sapiens, UniProt O75874) (O75874 2-414): as the sequence (O75874 2-414 K217M) above, with M216K counted along it
Chain of isocitrate dehydrogenase 1 (IDH1) (Homo sapiens, UniProt O75874, D273L/R132H) (O75874 2-414 R132H/D273L): as the sequence (O75874 2-414 K217M) above, with R131H, M216K, D272L counted along it

Cc1ccccc1C(C(=O)NC1CCCCC1)N(C(=O)Cn1ccnc1C)c1cccc(F)c1 (stereo not shown) [AGI-5198]
Kd [1]: 3.3 ± 0.5 µM

O=C(O)CC(C(=O)O)C(O)C(=O)O (stereo not shown) [isocitrate]
Km [2]: 61 ± 5 µM | Km [3]: 150 ± 20 µM | Km [4]: 250 ± 20 µM | Km [5]: 12 ± 3 mM | Km [6]: 1.9 ± 0.2 mM | Km [7]: 19 ± 2 mM
